# Reference: US11952328B2, “Selective ship inhibitors for treating disease” (THE RESEARCH FOUNDATION FOR THE STATE UNIVERSITY OF NEW YORK, priority 2018, dated 2024)
# Columns and labels:
# RMA cells = assay: Apoptosis (AnnexinV), Caspase 8 and CD95/Fas in RMA cells in culture; assay type: cell-based, mice
# Description: FIGS. 5A-5I show the effects of SHIP1 inhibitor as a chemotherapeutic. […] FIG. 5D and FIG. 5E show the representative histograms and box-and-whisker plots of FasL expression by NK cells from C56BL/6 (p=0.0002; Unpaired t test with Welch's correction) or RAG1−/− (p<0.0001; Mann-Whitney U test) tumor challenged, SHIP inhibitor or vehicle treated hosts. […] (NK cells p=0.0192; Unpaired t test with Welch's correction. T cells p=0.0659; Mann-Whitney U test). Additionally, FIGS. 5A-5G show the analysis by flow cytometry on day 3 after hosts receive SHIP inhibitor or vehicle for two consecutive days. NK cells are defined as NK1.1+CD3ε−. The graphs are representative of at least two independent experiments with at least four SHIP inhibitor and vehicle treated mice. […] Viability is expressed as frequency at a given concentration expressed as a percentage of solvent only treated cells. The kill curve summarizes pooled data from three independent experiments using six replicate wells/concentration with mean ±SEM indicated (n=18 per group. One-way ANOVA with Dunnett's multiple comparisons. 0 pM vs. 20 pM Adjusted p value =0.0001. 0 pM vs. 15 pM Adjusted p value =0.0001. 0 pM vs. 10 pM Adjusted p value =0.0001. 0 pM vs. 7.5 pM Adjusted p value =0.0001. 0 pM vs. 5 pM Adjusted p value =0.0001).
# NK cells are able to directly kill target cells through several different mechanisms including both production of perforin and granzymes and induction of apoptosis via Fas-FasL signaling (Arase, H. et al., Fas-mediated cytotoxicity by freshly isolated natural killer cells. J Exp Med. (1995); 181: 1235-1238; Zamai, L. et al., Natural killer (NK) cell-mediated cytotoxicity: differential use of TRAIL and Fas ligand by immature and mature primary human NK cells. J Exp Med. (1998); 188: 2375-2380). […] SHIP1 was recently shown to be recruited to CD95/Fas to set a threshold for induction of Caspase 8, and thereby, a threshold for induction of apoptosis (Park, M. Y. et al., Impaired T-cell survival promotes mucosal inflammatory disease in SHIP1-deficient mice. Mucosal Immunol. (2014); 7: 1429-1439). […]
# [1] = system: MC-38 colon carcinoma cells; assay: Subcutaneous MC-38 colon carcinoma model; assay type: in vivo, C57BL/6 mice
# Description: FIG. 7A and FIG. 7B show CT26 (FIG. 7A) and MC-38 (FIG. 7B) viability following in vitro treatment with 3AC for 24 h at indicated doses. Relative viability is expressed as frequency compared to solvent only treated cells. Kill curve summarizes pooled data from three independent experiments using six replicate wells/concentration with mean±SEM indicated. BALB/C mice were challenged with subcutaneous injection of CT26 colon carcinoma cells in the right flank. Mice were treated with either 2 consecutive days of 3AC or vehicle control each week as in FIG. 4A. Tumor size at […] 28 days (FIG. 7C), and tumor weight on day 28 determined after dissection of tumor (FIG. 7E). […] C57BL/6 mice were challenged with subcutaneous injection of MC-38 colon carcinoma cells in the right flank. Mice were treated with either 2 consecutive days of SHIP inhibitor or vehicle control each week as in FIG. 4A. Tumor size at 14, 21 and 25 days (FIG. 7D), and tumor weight (FIG. 7F) on day 25 were determined after dissection of tumor. […] FIG. 7A (n=18 per group. One-way ANOVA with Dunnett's multiple comparisons. 0 μM vs. 20 μM Adjusted p value=0.0463. All other concentrations of SHIP inhibitor compared with solvent only N.S.). FIG. 7B (n=18 per group. One-way ANOVA with Dunnett's multiple comparisons. All concentrations of SHIP inhibitor compared with solvent only N.S.). FIGS. 7C-7F graphs represent data from one of two independent experiments. FIG. 7C (n=10. Day 14 p<0.0001, Unpaired t test with Welch's correction. Day 21 p<0.0001, two-tailed student's t-test. Day 28 p<0.0001, two-tailed Student's t-test). FIG. 7E (n=10. P<0.0001, two-tailed Student's t-test) FIG. 7D (n=10. Day 14 p=0.0005, two-tailed student's t-test. Day 21 p=0.0009, two-tailed Student's t-test. Day 25 p=0.0009, two-tailed student's t-test). FIG. 7F (n=10. P=0.0067, two-tailed student's t-test).
# Colorectal cancer is the second leading cause of cancer mortality in the United States (Siegel, R. L. et al., Colorectal cancer statistics, 2017. CA Cancer J Clin. (2017)). […]
# [2] = RMA cells, culture for 12 hours
compound,measurement,setting,value
"CC(C)CCC[C@@H](C)[C@H]1CC[C@H]2[C@@H]3CCC4C[C@H](N)CC[C@]4(C)[C@H]3CC[C@]12C (stereo partly drawn) [Compound 3AC, 3-α-aminocholestane]",frequency of death receptor CD95/Fas,RMA cells; 3AC-treated RMA cells,increased frequency
same,activation of Caspase 8,RMA cells; [2],increased activation of Caspase 8
same,induction of apoptosis (AnnexinV),RMA cells; [2],significant induction of apoptosis
same,tumor weight,"[1]; day 25, vs vehicle",significant reduction
same,tumor size,"[1]; two consecutive days each week, days 14, 21, 25, vs vehicle",significant reduction
same,histological analysis (H&E) of tumors,[1]; vs vehicle,prominent zones of tumor cell death
